Earlier results on 2 compounds are cited in patent US20020171063A1, “Reduced toxicity ethylene glycol-based antifreeze/heat transfer fluid concentrates and antifreeze/heat transfer fluids” (priority 2001, published 2002).

The test system of the data set is laboratory rats.

For the compound `O.O.O.O.O=B[O-].[Na+]` [metaborate], the “acute oral toxicity (LD50)” value is 1,700 mg/kg.

On to `CC(O)CO` (centres unmarked) [PG, 1,2-propanediol], for which the “acute oral toxicity (LD50)” value was 20,000 mg/kg.
